Measured values reported in patent publication US20230159445A1, “STAT INHIBITORY COMPOUNDS AND COMPOSITIONS” (JANPIX LIMITED, priority 2020, published 2023).

Assays:
MV4-11 cells = assay: MV4-11 Cell Cytotoxicity Assay (CellTiter-Blue, 72 h); format: cell-based, human; conditions: Homo sapiens, MV4-11; MV-4-11 cells
In short: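 Viability read-out: CellTiter-Blue, 1 h, fluorescence 560/590 nm. Preceded by 72 h exposure (37° C, 5% CO2) to twofold dilution series from 50 μM, triplicate, 0.5% DMSO vehicle, applied 24 h after plating.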

[1] = test system: normal human fibroblast (NHF) cells; assay: NHF Cell Cytotoxicity Assay (CellTiter-Blue, 72 h), off-target effects; format: cell-based; conditions: Homo sapiens, Fibroblast; pooled NHF cells
In short: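 Normal human fibroblasts (1×10^4/well, 10% FBS medium) were treated after 24 h with inhibitor at 0.097656-50 μM for 72 h at 37° C. Viability was read by CellTiter-Blue fluorescence (560/590 nm), normalized to DMSO control, and IC50 obtained from a variable-slope log(inhibitor)-response fit of four replicates.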

glutathione (GSH) = assay: Reactivity Profiling with Glutathione (GSH), half-life by HPLC; conditions: 5 mM glutathione (GSH) in IMDM with 10% FBS

Structure (SMILES) | IC50 (MV4-11 cells) [nM] | IC50 [1] [nM] | half-life at 25 μM (glutathione (GSH)) [h]
O=C(O)c1ccc(N(Cc2cc(C3CC3)cc(C3CC3)c2)C(=O)CN(Cc2c(F)c(F)c(F)c(F)c2F)S(=O)(=O)c2c(F)c(F)c(F)c(F)c2F)c(C2CC2)c1 [Compound 1196, 3-cyclopropyl-4-(N-(3,5-dicyclopropylbenzyl)-2-(N-((perfluorophenyl)methyl)-(2,3,4,5,6-pentafluoro-phenyl)sulfonamido)acetamido)benzoic acid] | 0.01 to 316 | 1 to 10000 | 9.23 to 1670
O=C(O)c1ccc(N(Cc2cc(C3CC3)cc(C3CC3)c2)C(=O)CN(Cc2ccc(F)cc2Cl)S(=O)(=O)c2c(F)c(F)c(F)c(F)c2F)c(C2CC2)c1 [Compound 1197, 4-(2-(N-(2-chloro-4-fluorobenzyl)-(2,3,4,5,6-pentafluorophenyl)sulfon-amido)-N-(3,5-dicyclopropylbenzyl)acetamido)-3-cyclopropylbenzoic acid] | 0.01 to 316 | 10000 to 20000 | 4.12 to 9.23
O=C(O)c1ccc(N(Cc2cc(C3CC3)cc(N3CCCC3)c2)C(=O)CN(Cc2c(F)cc(F)cc2F)S(=O)(=O)c2c(F)c(F)c(F)c(F)c2F)c(C2CC2)c1 [Compound 1199, 3-cyclopropyl-4-(N-(3-cyclopropyl-5-(pyrrolidin-1-yl)benzyl)-2-(N-(2,4,6-trifluorobenzyl)-(2,3,4,5,6-pentafluoro-phenyl)sulfonamido)acetamido)benzoic acid] | 0.01 to 316 | 1 to 10000 | 9.23 to 1670
O=C(O)c1ccc(N(Cc2cc(C3CC3)cc(N3CCCC3)c2)C(=O)CN(Cc2ccc(F)cc2Cl)S(=O)(=O)c2c(F)c(F)c(F)c(F)c2F)c(C2CC2)c1 [Compound 1200, 4-(2-(N-(2-chloro-4-fluorobenzyl)-(2,3,4,5,6-pentafluorophenyl)sulfon-amido)-N-(3-cyclopropyl-5-(pyrrolidin-1-yl)benzyl)acetamido)-3-cyclopropylbenzoic acid] | 0.01 to 316 | 1 to 10000 | 9.23 to 1670
Cc1cc(C(=O)O)cc(C)c1N(Cc1cc(C2CC2)cc(C2CC2)c1)C(=O)CN(Cc1c(F)cc(F)cc1F)S(=O)(=O)c1c(F)c(F)c(F)c(F)c1F [Compound 1203, 4-(N-(3,5-dicyclopropylbenzyl)-2-(N-(2,4,6-trifluorobenzyl)-(2,3,4,5,6-pentafluoro-phenyl)sulfonamido)acetamido)-3,5-dimethylbenzoic acid] | 0.01 to 316 | 1 to 10000 | 4.12 to 9.23
O=C(O)c1ccc(N(Cc2cc(C3CC3)cc(C3CC3)c2)C(=O)CN(Cc2cnccc2C(F)(F)F)S(=O)(=O)c2c(F)c(F)c(F)c(F)c2F)c(OC2CCCC2)c1 [Compound 1207, 3-(cyclopentyloxy)-4-(N-(3,5-dicyclopropylbenzyl)-2-(N-((4-(trifluoromethyl)pyridin-3-yl)methyl)-(2,3,4,5,6-pentafluoro-phenyl)sulfonamido)acetamido)benzoic acid] | 0.01 to 316 | 10000 to 20000 | 4.12 to 9.23
O=C(O)c1ccc(N(Cc2cc(C3CC3)cc(C3CC3)c2)C(=O)CN(Cc2ccc(F)cc2Cl)S(=O)(=O)c2c(F)c(F)c(F)c(F)c2F)c(OC2CCCC2)c1 [Compound 1208, 4-(2-(N-(2-chloro-4-fluorobenzyl)-(2,3,4,5,6-pentafluorophenyl)sulfon-amido)-N-(3,5-dicyclopropylbenzyl)acetamido)-3-(cyclopentyloxy) benzoic acid] | 0.01 to 316 | 10000 to 20000 | 9.23 to 1670
O=C(O)c1ccc(N(Cc2cc(C3CC3)cc(N3CCCC3)c2)C(=O)CN(Cc2cnccc2C(F)(F)F)S(=O)(=O)c2c(F)c(F)c(F)c(F)c2F)c(OC2CCCC2)c1 [Compound 1209, 3-(cyclopentyloxy)-4-(N-(3-cyclopropyl-5-(pyrrolidin-1-yl)benzyl)-2-(N-((4-(trifluoromethyl)pyridin-3-yl)methyl)-(2,3,4,5,6-pentafluoro-phenyl)sulfonamido)acetamido)benzoic acid] | 0.01 to 316 | 10000 to 20000 | 9.23 to 1670
CN(C)c1cc(C(=O)O)ccc1N(Cc1cc(C2CC2)cc(C2CC2)c1)C(=O)CN(Cc1cnccc1C(F)(F)F)S(=O)(=O)c1c(F)c(F)c(F)c(F)c1F [Compound 1210, 4-(N-(3,5-dicyclopropylbenzyl)-2-(N-((4-(trifluoromethyl)pyridin-3-yl)methyl)-(2,3,4,5,6-pentafluoro-phenyl)sulfonamido)acetamido)-3-(dimethylamino) benzoic acid] | 0.01 to 316 | 1 to 10000 | 0.00167 to 2.37
CN(C)c1cc(C(=O)O)ccc1N(Cc1cc(C2CC2)cc(C2CC2)c1)C(=O)CN(Cc1ccc(F)cc1Cl)S(=O)(=O)c1c(F)c(F)c(F)c(F)c1F [Compound 1211, 4-(2-(N-(2-chloro-4-fluorobenzyl)-(2,3,4,5,6-pentafluorophenyl)sulfon-amido)-N-(3,5-dicyclopropylbenzyl)acetamido)-3-(dimethylamino) benzoic acid] | 316 to 1000 | 10000 to 20000 | 4.12 to 9.23
CC(C)Oc1cc(CN(C(=O)CN(Cc2ccccc2C(F)(F)F)S(=O)(=O)c2c(F)c(F)c(F)c(F)c2F)c2ccc(C(=O)O)cc2OC2CC2)cc(C2CC2)c1 [Compound 1213, 3-cyclopropoxy-4-(N-(3-cyclopropyl-5-isopropoxybenzyl)-2-(N-(2-(trifluoromethyl)benzyl)-(2,3,4,5,6-pentafluoro-phenyl)sulfonamido)acetamido)benzoic acid] | 0.01 to 316 | 10000 to 20000 | 2.37 to 4.12
O=C(O)c1ccc(N(Cc2cc(C3CC3)cc(C3CC3)c2)C(=O)CN(Cc2ncc(F)cc2Cl)S(=O)(=O)c2c(F)c(F)c(F)c(F)c2F)c(OC2CC2)c1 [Compound 1214, 4-(2-(N-((3-chloro-5-fluoropyridin-2-yl)methyl)-(2,3,4,5,6-pentafluorophenyl)sulfon-amido)-N-(3,5-dicyclopropylbenzyl)acetamido)-3-cyclopropoxybenzoic acid] | 0.01 to 316 | 1 to 10000 | 4.12 to 9.23
CN(C)c1cc(C(=O)O)ccc1N(Cc1cc(C2CC2)cc(C2CC2)c1)C(=O)CN(Cc1ccccc1C(F)(F)F)S(=O)(=O)c1c(F)c(F)c(F)c(F)c1F [Compound 1215, 4-(N-(3,5-dicyclopropylbenzyl)-2-(N-(2-(trifluoromethyl)benzyl)-(2,3,4,5,6-pentafluoro-phenyl)sulfonamido)acetamido)-3-(dimethylamino) benzoic acid] | 0.01 to 316 | 20000 to 30000 | 4.12 to 9.23
Cc1cc(C(=O)O)ccc1N(Cc1cc(C2CC2)cc(C2CC2)c1)C(=O)CN(Cc1cnccc1C(F)(F)F)S(=O)(=O)c1c(F)c(F)c(F)c(F)c1F [Compound 1216, 4-(N-(3,5-dicyclopropylbenzyl)-2-(N-((4-(trifluoromethyl)pyridin-3-yl)methyl)-(2,3,4,5,6-pentafluoro-phenyl)sulfonamido)acetamido)-3-methylbenzoic acid] | 0.01 to 316 | 1 to 10000 | 0.00167 to 2.37
Cc1cc(C(=O)O)ccc1N(Cc1cc(C2CC2)cc(C2CC2)c1)C(=O)CN(Cc1ccccc1C(F)(F)F)S(=O)(=O)c1c(F)c(F)c(F)c(F)c1F [Compound 1217, 4-(N-(3,5-dicyclopropylbenzyl)-2-(N-(2-(trifluoromethyl)benzyl)-(2,3,4,5,6-pentafluoro-phenyl)sulfonamido)acetamido)-3-methylbenzoic acid] | 0.01 to 316 | 20000 to 30000 | 4.12 to 9.23
